Measurements from patent publication US20110165128A1, “HOMING IN MESENCHYMAL STEM CELLS” (Columbia University in the City of New York, priority 2008, published 2011).

Tested on: adhesion of hMSCs to HUVECs
Experiment: Adhesion assay: adhesion of hMSCs to endothelial cells (HUVECs)
Assay type: cell-based, human
Conditions: 0.5 μg/ml SDF-1 or 10 μM AMD3100
Description: Exposure of cells to hypoxia: HUVECs were exposed to hypoxia in a BD GasPak EZ Anaerobe Gas Generating Pouch System with an Indicator (BD Biosciences) as described (Potapova, 2007). As certified by the manufacturer, the Anaerobe Gas Generating Pouch System produces an atmosphere containing 10% carbon dioxide and 1% oxygen.
Adhesion Assay: Adhesion of hMSCs to endothelial cells was studied using hMSCs isolated from a monolayer or 3 day old hMSC spheroids. Cells were dissociated using 0.25% trypsin-EDTA solution (Lonza) for 15 min in the case of hMSC monolayers, or for 90 min in the case of the spheroids. Trypsinization was stopped by addition of trypsin inhibitor solution (Lonza). Isolated cells were washed with PBS, labeled with 2 μg/ml Calcein AM in HBSS for 45 min at 37 °C in a humidified atmosphere of 5% CO2, washed with HBSS and resuspended in DMEM supplemented with 5% fetal bovine serum. HUVECs were plated in 24 well plates and maintained in EBM-2 growth media for 2-3 days until they reached confluence. For the adhesion assay, EBM-2 media was replaced with 0.5 ml of DMEM supplemented with 5% fetal bovine serum. hMSCs (10,000 cells per well) were added to endothelial cells. The adhesion assay was performed in the presence 0.5 μg/ml SDF-1, 10 μM AMD3100 or without additives. Plates were placed on a rotation platform (30 rotations per min) and incubated for 30 min at 37° C. […] Fluorescence was acquired from the bottom of the plates using a POLARstar OPTIMA microplate reader at excitation/emission wavelengths of 485/520 nm. Background fluorescence was determined in the wells containing no hMSCs but a monolayer of endothelial cells. Total cell load was estimated as the fluorescence from non-washed wells with added hMSCs. A minimum six wells were used to estimate background fluorescence, total cell load or fluorescence from adhered cells. Percent of bound cells was calculated as a ratio between fluorescence of adhered cells and total cell load after subtraction of background fluorescence. […]

SMILES: c1cc(CN2CCCNCCNCCCNCC2)ccc1CN1CCCNCCNCCCNCC1 [AMD3100]
- effect on the adhesion of cells from the spheroids to endothelial cells preexposed to hypoxia (cells from 3 day old hMSC spheroids, HUVECs pre-exposed to hypoxia): no effect
- stimulation of the adhesion of cells from the spheroids to normoxic endothelial cells (cells from 3 day old hMSC spheroids, normoxic HUVECs): 1.7±0.4 times
- effect on the adhesion of hMSCs from a monolayer to endothelial cells (hMSCs from a monolayer, normoxic or pre-exposed to hypoxia HUVECs): Neither SDF-1 nor AMD3100 affected the adhesion
